Common to all, as to assay type: functional, organism-based
Test [1] deals with Plasmodium falciparum. In words: (§1) Antimalarial activity as reduced parasitaemia after 72 hrs against chloroquine-resistant Plasmodium falciparum K1 infected human O+ erythrocytes by DNA stain without pepstatin. As to conditions: K1, 72 h.
Test [2] concerns Plasmodium falciparum. The description is as §1. To be noted: K1, 72 h. This is another data set of the same source.
Test [3] relates to Plasmodium falciparum. In words: Antimalarial activity as reduced parasitaemia after 72 hrs against chloroquine-sensitive Plasmodium falciparum 3D7 infected human O+ erythrocytes by DNA stain without pepstatin. As to conditions: 3D7, 72 h.
Test [4] relates to Plasmodium falciparum. The experiment in a line: Antimalarial activity as reduced parasitaemia after 72 hrs against chloroquine-sensitive Plasmodium falciparum 3D7 infected human O+ erythrocytes by DNA stain with pepstatin. To be noted: 3D7, 72 h.

We go through nine compounds from ChEMBL document CHEMBL1136945, “Antimalarial activity of thiosemicarbazones and purine derived nitriles” (Bioorg Med Chem Lett, 2009).

Consider `Cc1ccc(/C(=N/NC(N)=S)c2cccc(C(F)(F)F)c2)cc1`, for which the EC50 was greater than 30 µM in the test with Plasmodium falciparum [1], greater than 30 µM in the test on Plasmodium falciparum [2], greater than 30 µM in the test on Plasmodium falciparum [3] and 30 µM in the test with Plasmodium falciparum [4].
Turning to `N#Cc1nc(NCc2ccc(-c3ccco3)cc2)c2ncn(CCCO)c2n1`, the concentration giving a half-maximal response (EC50) with Plasmodium falciparum [1] is 13 µM; with Plasmodium falciparum [2] it was 12 µM; with Plasmodium falciparum [3] it was 18 µM; in the test with Plasmodium falciparum [4], 12 µM.
`Cc1ccc(/C(=N/NC(N)=S)c2cc(Cl)cc(Cl)c2)cc1`: the half-maximal effective concentration (EC50) was greater than 30 µM in the test with Plasmodium falciparum [1], greater than 30 µM in the test with Plasmodium falciparum [2], greater than 30 µM with Plasmodium falciparum [3] and 30 µM in the test with Plasmodium falciparum [4].
As for `NC(=S)N/N=C(\c1cc(Cl)cc(Cl)c1)c1cccs1`, the EC50 was greater than 30 µM in the test on Plasmodium falciparum [1], greater than 30 µM in the test on Plasmodium falciparum [2], greater than 30 µM in the test with Plasmodium falciparum [3] and 30 µM in the test with Plasmodium falciparum [4].
In the case of `CC(=O)Nc1cccc(CNc2nc(C#N)nc3c2ncn3CCCO)c1`, the EC50 with Plasmodium falciparum [1] is 15 µM; in the test on Plasmodium falciparum [2] it was 11 µM; with Plasmodium falciparum [3] it was 15 µM; with Plasmodium falciparum [4], 6 µM.
On to `C=Cc1ccc(-c2cccc(CNc3nc(C#N)nc4c3ncn4CCCO)c2)cc1`, for which the half-maximal effective concentration (EC50) in the test on Plasmodium falciparum [1], in the test with Plasmodium falciparum [2], in the test on Plasmodium falciparum [3] and in the test with Plasmodium falciparum [4] was greater than 30 µM throughout.
On to `N#Cc1nc(NCc2cccc(-c3ccco3)c2)c2ncn(CCCO)c2n1`, for which the EC50 in the test on Plasmodium falciparum [1], in the test on Plasmodium falciparum [2], in the test on Plasmodium falciparum [3] and in the test on Plasmodium falciparum [4] was greater than 30 µM throughout.
As for `N#Cc1nc(NCc2ccc(-c3cccc(Cl)c3)cc2)c2ncn(CCCO)c2n1`, the EC50 in the test with Plasmodium falciparum [1] was 20 µM; in the test with Plasmodium falciparum [2] it was 18 µM; in the test on Plasmodium falciparum [3], 20 µM; in the test on Plasmodium falciparum [4] it was 14 µM.
`N#Cc1nc(NCc2ccc(Cl)c(Cl)c2)c2c(n1)N(Cc1cccc(C(F)(F)F)c1)CN2`: the EC50 in the test with Plasmodium falciparum [1] was 30 µM; with Plasmodium falciparum [2], 24 µM; with Plasmodium falciparum [3], 27 µM; with Plasmodium falciparum [4], 30 µM.
